Consider 3 compounds from patent publication US20250179078A1, “INHIBITORS OF NLRP3” (PTC THERAPEUTICS, INC., priority 2022, published 2025).

This assay deals with T1, NLRP3 (Homo sapiens, UniProt Q96P20).
T1 construct: host or cells: THP-1 cells differentiated with PMA
T1 sequence (Q96P20 whole entry): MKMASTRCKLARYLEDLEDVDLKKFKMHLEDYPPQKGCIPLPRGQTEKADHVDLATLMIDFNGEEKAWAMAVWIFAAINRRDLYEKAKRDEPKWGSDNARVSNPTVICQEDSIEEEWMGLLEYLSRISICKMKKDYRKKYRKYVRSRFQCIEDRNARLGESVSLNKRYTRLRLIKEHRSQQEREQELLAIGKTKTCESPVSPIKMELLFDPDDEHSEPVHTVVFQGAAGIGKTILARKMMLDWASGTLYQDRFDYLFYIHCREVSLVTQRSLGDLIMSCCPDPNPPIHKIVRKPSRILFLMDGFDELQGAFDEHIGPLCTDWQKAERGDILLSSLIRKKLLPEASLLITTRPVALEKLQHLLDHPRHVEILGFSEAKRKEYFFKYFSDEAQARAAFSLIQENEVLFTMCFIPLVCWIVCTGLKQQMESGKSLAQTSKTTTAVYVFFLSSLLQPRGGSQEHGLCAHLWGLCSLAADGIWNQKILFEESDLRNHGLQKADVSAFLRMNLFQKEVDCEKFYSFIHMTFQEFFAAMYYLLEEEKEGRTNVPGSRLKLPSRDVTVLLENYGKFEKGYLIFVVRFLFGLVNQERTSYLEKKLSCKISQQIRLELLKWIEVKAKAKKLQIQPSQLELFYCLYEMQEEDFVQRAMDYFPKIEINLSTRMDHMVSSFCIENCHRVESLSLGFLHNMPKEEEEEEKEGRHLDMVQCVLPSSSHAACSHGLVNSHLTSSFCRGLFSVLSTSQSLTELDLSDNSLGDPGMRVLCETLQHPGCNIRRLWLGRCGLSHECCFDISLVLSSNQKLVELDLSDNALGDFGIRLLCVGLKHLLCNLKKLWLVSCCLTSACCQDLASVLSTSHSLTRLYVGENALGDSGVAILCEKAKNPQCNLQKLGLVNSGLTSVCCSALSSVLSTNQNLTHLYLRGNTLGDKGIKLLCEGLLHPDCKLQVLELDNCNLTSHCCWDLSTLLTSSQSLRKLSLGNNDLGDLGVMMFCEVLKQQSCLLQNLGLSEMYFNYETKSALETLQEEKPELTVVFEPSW
Nature of the assay: IL-1β Secretion Assay (NLRP3-dependent IL1β secretion in THP1 cells). The assay is classed as cell-based. The following applies: PMA-differentiated THP-1 cells; compounds incubated 20 h; 2.5 μM Nigericin 3 h; HTRF IL-1β readout; read-out: IC50 IL-1β Inhibition. In short, it runs like this:
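THP-1 cells differentiated with 100 ng/mL PMA for 24 h, then given compound (7-point 3-fold series, 1:200 from DMSO) for 20 h in RPMI+5% FBS. NLRP3 activated with 2.5 μM nigericin for 3 h; secreted IL-1β measured by HTRF; IC50 from logistic fit of % inhibition.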
As for `COc1ccc(-c2nnc(N[C@@H]3CCCC[C@H]3O)n3cc(C)cc23)c(OC(F)(F)F)c1` [Compound 163, (1R,2R)-2-({1-[4-methoxy-2-(trifluoromethoxy)phenyl]-7-methylpyrrolo[1,2-d][1,2,4]triazin-4-yl}amino)cyclohexan-1-ol], the IC50 – broadly, the concentration that gives 50% inhibition – was 10 to 100 nM.

Take `FC(F)Oc1cc(C(F)(F)F)ccc1-c1nnc(N[C@@H]2CCCOC2)n2cncc12` [Compound 188, 1-[2-(difluoromethoxy)-4-(trifluoromethyl)phenyl]-N-[(3R)-oxan-3-yl]imidazo[1,5-d][1,2,4]triazin-4-amine]: the IC50 lay within 10 to 100 nM.

Take `COc1ccc(-c2nnc(N[C@@H]3CCCC[C@H]3O)n3cccc23)c(OC(F)F)c1` [Compound 177, (1R,2R)-2-({1-[2-(difluoromethoxy)-4-methoxyphenyl]pyrrolo[1,2-d][1,2,4]triazin-4-yl}amino)cyclohexan-1-ol]: the IC50 lay in the range of 10 to 100 nM.
